This is an account of results in patent publication US10035778B2, “Meta-azacyclic amino benzoic acid derivatives as pan integrin antagonists” (Saint Louis University, priority 2015, dated 2018).

Holding throughout (format): binding
The target in experiment [1] is Recombinant human integrin α8β1 (Homo sapiens (Human), UniProt P05556+P53708). Put plainly: Solid Phase Receptor Assay (SPRA) for α8β1 function. As to conditions: mouse nephronectin-coated plate. How it is done:
7. Solid Phase Receptor Assay (SPRA) for α8β1 Function
Recombinant mouse nephronectin protein (R&D Systems, Inc, 4298-NP) diluted to 1 μg/mL in TBS+ buffer (25 mM Tris pH 7.4, 137 mM NaCl, 2.7 mM KCl, 1 mM CaCl2, 1 mM MgCl2, 1 mM MnCl2) was added to wells (50 μl/well) of a 96-well half-well transparent microtiter plate (Greiner 675061), and incubated overnight at 4° C. Wells were washed 3 times with 150 μL TBS+ and 150 μL of blocking buffer (TBS+ with 1% bovine serum albumin, Sigma A7906) were added. The plate was incubated for 1 hr at 37° C. and then washed 3× with TBS+. Recombinant human integrin α8β1 (R&D Systems, pre-launch) was diluted to 0.25 μg/mL in TBS+/0.1% bovine serum albumin. Compounds were diluted 1:100 into the integrin solution and 50 μL added to empty wells of the washed nephronectin-coated plate according to a standard template with each sample repeated in triplicate. After incubation for two hours at room temperature, the plate was washed 3× with 150 μL of TBS+. To each well, 50 μL of biotinylated anti-β antibody (R&D Systems, BAF1778) at 0.5 μg/mL in TBS+/0.1% BSA were added and the plate was covered and incubated for 1 hr at room temperature. After washing the plate 3× with 150 μL of TBS+ buffer, 50 μL of streptavidin-conjugated horseradish peroxidase (R&D Systems, DY998) diluted in TBS+ blocking buffer were added to the wells and the plate incubated for 20 min at room temperature. The plate was washed 3× with TBS+ followed by 50 μL of TMB substrate (Sigma T4444) added to each well and the plate incubated for 20 min at room temperature. Plates were read by colorimetric detection at 650 nm wavelength using a Tecan Safire II plate reader. Concentration-response curves were constructed by non-linear regression (best fit) analysis, and IC50 values were calculated for each compound.

In experiment [2] the target is Recombinant human integrin αvβ3 (Homo sapiens (Human), UniProt P05106+P06756). Put plainly: Solid Phase Receptor Assay (SPRA) for αvβ3 function. The conditions noted are these: vitronectin-coated plate. How it is done: 3. Solid Phase Receptor Assay (SPRA) for αvβ3 Function
Chain of Recombinant human integrin αvβ3 (P06756 31-992): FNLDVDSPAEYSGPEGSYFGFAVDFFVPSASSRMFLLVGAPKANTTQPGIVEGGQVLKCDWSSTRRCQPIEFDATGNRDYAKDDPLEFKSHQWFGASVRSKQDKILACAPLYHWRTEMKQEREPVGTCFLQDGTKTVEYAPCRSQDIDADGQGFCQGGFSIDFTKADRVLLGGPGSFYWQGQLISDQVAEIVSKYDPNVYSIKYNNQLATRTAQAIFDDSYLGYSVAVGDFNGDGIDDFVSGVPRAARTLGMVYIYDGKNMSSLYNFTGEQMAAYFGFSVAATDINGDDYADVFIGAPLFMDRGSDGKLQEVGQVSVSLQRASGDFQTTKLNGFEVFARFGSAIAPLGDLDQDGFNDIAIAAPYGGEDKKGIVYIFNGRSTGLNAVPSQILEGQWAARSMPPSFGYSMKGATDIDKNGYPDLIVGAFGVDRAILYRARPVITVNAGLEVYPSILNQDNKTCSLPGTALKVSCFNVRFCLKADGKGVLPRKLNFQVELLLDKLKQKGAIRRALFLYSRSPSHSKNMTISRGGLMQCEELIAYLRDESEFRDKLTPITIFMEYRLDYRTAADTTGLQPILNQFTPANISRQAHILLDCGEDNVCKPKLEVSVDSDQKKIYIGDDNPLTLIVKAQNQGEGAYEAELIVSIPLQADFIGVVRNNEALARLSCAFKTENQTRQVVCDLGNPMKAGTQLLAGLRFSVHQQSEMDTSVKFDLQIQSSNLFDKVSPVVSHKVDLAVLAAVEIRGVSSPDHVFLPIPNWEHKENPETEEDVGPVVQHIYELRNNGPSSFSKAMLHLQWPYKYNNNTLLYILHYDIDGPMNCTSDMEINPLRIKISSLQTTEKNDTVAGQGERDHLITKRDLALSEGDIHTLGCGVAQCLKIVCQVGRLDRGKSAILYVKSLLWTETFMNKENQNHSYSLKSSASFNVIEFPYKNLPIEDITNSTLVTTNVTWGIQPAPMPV
Chain of Recombinant human integrin αvβ3 (P05106 27-718): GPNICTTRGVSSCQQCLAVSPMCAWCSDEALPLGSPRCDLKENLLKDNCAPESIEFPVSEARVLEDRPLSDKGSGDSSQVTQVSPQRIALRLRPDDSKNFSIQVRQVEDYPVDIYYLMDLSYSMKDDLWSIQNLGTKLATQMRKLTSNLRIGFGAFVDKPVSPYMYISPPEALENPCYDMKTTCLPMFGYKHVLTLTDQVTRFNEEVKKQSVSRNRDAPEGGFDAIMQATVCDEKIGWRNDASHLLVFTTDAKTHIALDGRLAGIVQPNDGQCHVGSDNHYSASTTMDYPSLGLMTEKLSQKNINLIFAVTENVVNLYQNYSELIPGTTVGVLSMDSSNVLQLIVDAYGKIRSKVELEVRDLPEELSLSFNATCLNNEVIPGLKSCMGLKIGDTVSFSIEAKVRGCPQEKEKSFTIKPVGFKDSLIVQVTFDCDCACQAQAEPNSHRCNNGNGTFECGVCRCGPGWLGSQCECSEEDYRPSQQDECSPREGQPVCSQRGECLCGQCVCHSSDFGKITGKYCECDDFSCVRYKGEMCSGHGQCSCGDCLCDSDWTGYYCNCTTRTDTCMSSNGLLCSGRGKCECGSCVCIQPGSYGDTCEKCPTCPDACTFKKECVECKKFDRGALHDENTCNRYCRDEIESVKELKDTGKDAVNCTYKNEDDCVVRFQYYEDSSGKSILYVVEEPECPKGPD
Recombinant human vitronectin (R& D Systems, 2308-VN) diluted to 1 μg/mL in TBS+ buffer (25 mM Tris pH 7.4, 137 mM NaCl, 2.7 mM KCl, 1 mM CaCl2, 1 mM MgCl2, 1 mM MnCl2) was added to wells (50 μL/well) of a 96-well half-well transparent microtiter plate (Greiner 675061) and incubated overnight at 4° C. Wells were washed 3 times with 150 μL TBS+ and 150 μL of blocking buffer (TBS+ with 1% bovine serum albumin, Sigma A7906) were added. The plate was incubated for 1 hr at 37° C. and then washed 3× with TBS+ buffer. Recombinant human integrin αvβ3 (R&D Systems, 3050-AV) was diluted to 1 μg/mL in TBS+/0.1% bovine serum albumin. Compounds were diluted 1:100 into the integrin solution and then 50 μL added to empty wells of the washed vitronectin-coated plate according to a standard template with each sample repeated in triplicate. After incubation for two hours at room temperature, the plate was washed 3× with 150 μL of TBS+ buffer. To each well, 50 μL of biotinylated anti-αv antibody (R&D Systems, BAF1219) at 0.5 μg/mL in TBS+/0.1% BSA were added and the plate covered and incubated for 1 hr at room temperature. After washing the plate 3× with 150 μL of TBS+ buffer, 50 μL of streptavidin-conjugated horseradish peroxidase (R&D Systems, DY998) diluted in TBS+ blocking buffer were added to the wells and the plate incubated for 20 min at room temperature. The plate was washed 3× with TBS+ buffer followed by 50 μL of TMB substrate (Sigma, T4444) added to each well and the plate was incubated for 20 min at room temperature. Plates were read by colorimetric detection at 650 nm wavelength using a Tecan Safire II plate reader. Concentration-response curves were constructed by non-linear regression (best fit) analysis, and IC50 values were calculated for each compound.

The target of experiment [3] is Recombinant human integrin αvβ8 (Homo sapiens (Human), UniProt P06756+P26012). Put plainly: Solid Phase Receptor Assay (SPRA) for αvβ8 function. As to conditions: LAP-coated plate. Here is the method:
6. Solid Phase Receptor Assay (SPRA) for αvβ8 Function
Recombinant human LAP protein (R&D Systems, Inc, 246-LP) diluted to 0.5 μg/mL in TBS+ buffer (25 mM Tris pH 7.4, 137 mM NaCl, 2.7 mM KCl, 1 mM CaCl2, 1 mM MgCl2, 1 mM MnCl2) was added to wells (50 μl/well) of a 96-well half-well transparent microtiter plate (Greiner 675061), and incubated overnight at 4° C. Wells were washed 3 times with 150 μL TBS+ and 150 μL of blocking buffer (TBS+ with 1% bovine serum albumin, Sigma A7906) were added. The plate was incubated for 1 hr at 37° C. and then washed 3× with TBS+. Recombinant human integrin αvβ8 (R&D Systems, 4135-AV) was diluted to 0.1 μg/mL in TBS+/0.1% bovine serum albumin. Compounds were diluted 1:100 into the integrin solution and 50 μL added to empty wells of the washed LAP-coated plate according to a standard template with each sample repeated in triplicate. After incubation for two hours at room temperature, the plate was washed 3× with 150 μL of TBS+. To each well, 50 μL of biotinylated anti-αv antibody (R&D Systems, BAF1219) at 1 μg/mL in TBS+/0.1% BSA were added and the plate was covered and incubated for 1 hr at room temperature. After washing the plate 3× with 150 μL of TBS+ buffer, 50 μL of streptavidin-conjugated horseradish peroxidase (R&D Systems, DY998) diluted in TBS+ blocking buffer were added to the wells and the plate incubated for 20 min at room temperature. The plate was washed 3× with TBS+ followed by 50 μL of TMB substrate (Sigma T4444) added to each well and the plate incubated for 20 min at room temperature. Plates were read by colorimetric detection at 650 nm wavelength using a Tecan Safire II plate reader. Concentration-response curves were constructed by non-linear regression (best fit) analysis, and IC50 values were calculated for each compound.

SMILES strings stand for the structures.

Chain of Recombinant human integrin α8β1 (P53708 39-1012): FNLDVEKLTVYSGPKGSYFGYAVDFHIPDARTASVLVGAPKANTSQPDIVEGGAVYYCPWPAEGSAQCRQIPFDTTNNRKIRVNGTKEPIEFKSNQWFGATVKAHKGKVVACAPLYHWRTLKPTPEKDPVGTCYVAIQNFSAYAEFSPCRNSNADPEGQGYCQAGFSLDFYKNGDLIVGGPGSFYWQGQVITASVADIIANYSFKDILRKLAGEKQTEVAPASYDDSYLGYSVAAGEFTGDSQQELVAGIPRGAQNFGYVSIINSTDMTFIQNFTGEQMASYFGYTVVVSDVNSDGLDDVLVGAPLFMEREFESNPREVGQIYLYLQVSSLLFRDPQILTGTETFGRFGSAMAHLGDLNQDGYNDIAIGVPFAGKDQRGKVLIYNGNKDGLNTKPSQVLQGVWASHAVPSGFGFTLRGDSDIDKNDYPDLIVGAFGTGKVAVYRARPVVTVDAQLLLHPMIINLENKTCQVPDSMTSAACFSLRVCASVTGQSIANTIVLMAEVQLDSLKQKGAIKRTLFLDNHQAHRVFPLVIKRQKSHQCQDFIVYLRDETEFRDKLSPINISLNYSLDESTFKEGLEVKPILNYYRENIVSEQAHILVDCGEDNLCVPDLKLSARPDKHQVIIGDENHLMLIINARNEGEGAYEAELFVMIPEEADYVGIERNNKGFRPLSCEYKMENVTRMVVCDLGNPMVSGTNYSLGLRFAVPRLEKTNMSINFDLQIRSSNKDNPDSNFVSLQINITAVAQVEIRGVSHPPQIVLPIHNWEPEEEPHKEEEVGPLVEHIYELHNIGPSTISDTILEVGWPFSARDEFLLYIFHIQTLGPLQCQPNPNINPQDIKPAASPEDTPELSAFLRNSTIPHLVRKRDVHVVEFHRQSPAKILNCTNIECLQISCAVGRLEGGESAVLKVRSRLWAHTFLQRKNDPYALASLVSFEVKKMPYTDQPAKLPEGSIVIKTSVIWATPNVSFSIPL
Chain of Recombinant human integrin α8β1 (P05556 21-728): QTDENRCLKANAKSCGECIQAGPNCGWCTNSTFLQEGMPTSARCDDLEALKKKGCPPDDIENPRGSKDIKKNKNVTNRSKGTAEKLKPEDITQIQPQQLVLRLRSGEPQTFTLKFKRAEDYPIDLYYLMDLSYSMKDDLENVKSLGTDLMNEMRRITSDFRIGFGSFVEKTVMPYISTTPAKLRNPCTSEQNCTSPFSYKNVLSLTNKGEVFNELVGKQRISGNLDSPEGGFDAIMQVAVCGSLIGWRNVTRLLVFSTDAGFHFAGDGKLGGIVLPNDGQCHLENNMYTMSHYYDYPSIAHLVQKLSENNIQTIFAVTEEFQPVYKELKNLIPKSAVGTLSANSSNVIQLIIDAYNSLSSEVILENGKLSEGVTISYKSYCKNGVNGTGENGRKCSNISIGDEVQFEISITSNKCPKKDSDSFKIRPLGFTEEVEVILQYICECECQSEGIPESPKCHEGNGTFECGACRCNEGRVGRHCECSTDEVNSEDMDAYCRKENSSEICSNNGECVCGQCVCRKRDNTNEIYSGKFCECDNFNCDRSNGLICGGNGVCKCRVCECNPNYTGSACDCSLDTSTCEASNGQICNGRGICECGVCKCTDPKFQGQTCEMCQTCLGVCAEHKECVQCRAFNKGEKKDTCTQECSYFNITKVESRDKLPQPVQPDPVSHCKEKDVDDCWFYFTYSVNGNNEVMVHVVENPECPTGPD
Chain of Recombinant human integrin αvβ8 (P06756 31-992): as the sequence (P06756 31-992) above
Chain of Recombinant human integrin αvβ8 (P26012 43-684): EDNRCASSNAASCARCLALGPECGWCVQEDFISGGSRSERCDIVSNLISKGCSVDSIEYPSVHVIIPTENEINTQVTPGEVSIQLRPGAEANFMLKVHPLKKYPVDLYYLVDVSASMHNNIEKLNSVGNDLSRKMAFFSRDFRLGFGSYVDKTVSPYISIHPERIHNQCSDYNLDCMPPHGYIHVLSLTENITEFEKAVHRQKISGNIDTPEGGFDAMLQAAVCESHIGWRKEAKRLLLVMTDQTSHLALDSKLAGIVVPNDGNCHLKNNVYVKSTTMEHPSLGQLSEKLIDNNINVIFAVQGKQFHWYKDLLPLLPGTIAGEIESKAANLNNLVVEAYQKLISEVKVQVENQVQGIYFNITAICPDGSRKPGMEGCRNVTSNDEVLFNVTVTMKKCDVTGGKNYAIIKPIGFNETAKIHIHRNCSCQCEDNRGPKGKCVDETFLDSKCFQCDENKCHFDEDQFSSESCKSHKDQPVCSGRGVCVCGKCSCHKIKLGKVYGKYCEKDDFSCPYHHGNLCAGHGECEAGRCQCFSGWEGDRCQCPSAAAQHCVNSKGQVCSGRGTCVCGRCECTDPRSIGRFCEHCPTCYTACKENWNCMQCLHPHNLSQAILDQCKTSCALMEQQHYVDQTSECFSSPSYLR

Broadly, the IC50 is the midpoint of a concentration-inhibition curve. Turning to `O=C(O)C[C@H](NC(=O)CNC(=O)c1cc(O)cc(NC2=NCC(O)CN2)c1)c1cc(Br)cc(Br)c1` (stereo partly drawn) [Example 1, (3S)-3-(3,5-dibromophenyl)-3-(2-(3-hydroxy-5-((5-hydroxy-1,4,5,6-tetrahydropyrimidin-2-yl)amino)benzamido)acetamido)propanoic acid], the IC50 in experiment [1] came to 1.3 nM; in experiment [2], 2.3 ± 0.1 nM; in experiment [3], 0.3 ± 0.1 nM.

For `O=C(O)C[C@H](NC(=O)CNC(=O)c1cc(O)cc(NC2=NCC(O)CN2)c1)c1cc(Br)cc(C(F)(F)F)c1` (stereo partly drawn) [Example 2, (3S)-3-(3-bromo-5-(trifluoromethyl)phenyl)-3-(2-(3-hydroxy-5-((5-hydroxy-1,4,5,6-tetrahydropyrimidin-2-yl)amino)benzamido)acetamido)propanoic acid], the results for the IC50 in experiment [1], in experiment [2] and in experiment [3] were 1.5 nM, 2.7 ± 0.4 nM and 0.5 nM, respectively.

For `O=C(O)C[C@H](NC(=O)CNC(=O)c1cc(O)cc(NC2=NCC(O)CN2)c1)c1cc(Cl)cc(C(F)F)c1` (stereo partly drawn) [Example 3, (3S)-3-[3-chloro-5-(difluoromethyl)phenyl)-3-(2-(3-hydroxy-5-((5-hydroxy-1,4,5,6-tetrahydropyrimidin-2-yl)amino)benzamido)acetamido]propanoic acid], the values for the IC50 in experiment [1], in experiment [2] and in experiment [3] were 0.9 nM, 1 nM and 0.3 nM, respectively.

On to `O=C(O)C[C@H](NC(=O)CNC(=O)c1cc(O)cc(NC2=NCC(O)CN2)c1)c1cc(Br)cc(C(F)F)c1` (stereo partly drawn) [Example 4, (3S)-3-[3-bromo-5-(difluoromethyl)phenyl)-3-(2-(3-hydroxy-5-((5-hydroxy-1,4,5,6-tetrahydropyrimidin-2-yl)amino)benzamido)acetamido]propanoic acid], for which the half-maximal inhibitory concentration (IC50) in experiment [1] was found to be 0.6 nM; in experiment [2] it was 3 nM; in experiment [3], 0.4 nM.

Regarding `O=C(O)C[C@H](NC(=O)CNC(=O)c1cc(O)cc(NC2=NCC(O)CN2)c1)c1cc(Cl)cc(C(F)(F)F)c1` (stereo partly drawn) [Example 5, (3S)-3-[3-chloro-5-(trifluoromethyl)phenyl)-3-(2-(3-hydroxy-5-((5-hydroxy-1,4,5,6-tetrahydropyrimidin-2-yl)amino)benzamido)acetamido]propanoic acid], the figures for the IC50 in experiment [1], in experiment [2] and in experiment [3] were 0.9 nM, 3 nM and 0.6 nM, respectively.

As for `O=C(O)C[C@H](NC(=O)CNC(=O)c1cc(O)cc(NC2=NCC(O)CN2)c1)c1cc(Cl)cc(Br)c1` (stereo partly drawn) [Example 6, (3S)-3-[3-bromo-5-chloro-phenyl)-3-(2-(3-hydroxy-5-((5-hydroxy-1,4,5,6-tetrahydropyrimidin-2-yl)amino)benzamido)acetamido]propanoic acid], the IC50 in experiment [1] turned out to be 0.5 nM; in experiment [2], 1 nM; in experiment [3] it was 0.5 nM.

Consider `O=C(O)C[C@H](NC(=O)CNC(=O)c1cncc(NC2=NCC(O)CN2)c1)c1cc(Cl)cc(C(F)(F)F)c1` (stereo partly drawn) [Example 7], for which the IC50 in experiment [1] stood at 0.6 nM; in experiment [2], 3 nM; in experiment [3], 0.4 nM.

Take `O=C(O)C[C@H](NC(=O)CNC(=O)c1cncc(NC2=NCC(O)CN2)c1)c1cc(Cl)cc(Br)c1` (stereo partly drawn) [Example 8, (3S)-3-(3-bromo-5-chloro-phenyl)-3-[[2-[[5-[(5-hydroxy-1,4,5,6-tetrahydropyrimidin-2-yl)amino]pyridine-3-carbonyl]amino]acetyl]amino]propanoic acid]: the results for the IC50 in experiment [1], in experiment [2] and in experiment [3] were 0.6 nM, 4 nM and 0.4 nM, respectively.

`O=C(O)C[C@H](NC(=O)CNC(=O)c1cncc(NC2=NCC(O)CN2)c1)c1cc(Br)cc(C(F)(F)F)c1` (stereo partly drawn) [Example 9, (3S)-3-[3-bromo-5-(trifluoromethyl)phenyl]-3-[[2-[[5-[(5-hydroxy-1,4,5,6-tetrahydropyrimidin-2-yl)amino]pyridine-3-carbonyl]amino]acetyl]amino]propanoic acid]: the IC50 in experiment [1] was 0.5 nM; in experiment [2], 3 nM; in experiment [3], 0.3 nM.

Take `O=C(O)C[C@H](NC(=O)CNC(=O)c1cc(O)cc(NC2=NCC(O)CN2)c1)c1cc(C(F)(F)F)cc(C(F)(F)F)c1` (stereo partly drawn) [Example 10, (3S)-3-[3,5-bis(trifluoromethyl)phenyl)-3-(2-(3-hydroxy-5-((5-hydroxy-1,4,5,6-tetrahydropyrimidin-2-yl)amino)benzamido)acetamido]propanoic acid]: the IC50 in experiment [1] stood at 1.1 nM; in experiment [2], 4 nM; in experiment [3], 0.3 ± 0.1 nM.

Take `Cc1cc(Br)cc([C@H](CC(=O)O)NC(=O)CNC(=O)c2cc(O)cc(NC3=NCC(O)CN3)c2)c1` (stereo partly drawn) [Example 11, (3S)-3-[3-bromo-5-methyl-phenyl)-3-(2-(3-hydroxy-5-((5-hydroxy-1,4,5,6-tetrahydropyrimidin-2-yl)amino)benzamido)acetamido)propanoic acid]: the IC50 in experiment [1] came to 0.7 nM; in experiment [2] it was 2 nM; in experiment [3], 0.6 nM.

In the case of `Cc1cc(Cl)cc([C@H](CC(=O)O)NC(=O)CNC(=O)c2cc(O)cc(NC3=NCC(O)CN3)c2)c1` (stereo partly drawn) [Example 12, (3S)-3-[3-chloro-5-methyl-phenyl)-3-(2-(3-hydroxy-5-((5-hydroxy-1,4,5,6-tetrahydropyrimidin-2-yl)amino)benzamido)acetamido)propanoic acid], the figures for the half-maximal inhibitory concentration (IC50) in experiment [1], in experiment [2] and in experiment [3] were 0.8 nM, 4 nM and 0.7 ± 0.1 nM, respectively.

On to `O=C(O)C[C@H](NC(=O)CNC(=O)c1cc(O)cc(NC2=NCC(O)CN2)c1)c1cc(F)cc(Br)c1` (stereo partly drawn) [Example 13, (3S)-3-[3-bromo-5-fluoro-phenyl)-3-(2-(3-hydroxy-5-((5-hydroxy-1,4,5,6-tetrahydropyrimidin-2-yl)amino)benzamido)acetamido)propanoic acid], for which the IC50 was determined as 0.6 nM in experiment [1], 1.7 nM in experiment [2] and 1 ± 0.3 nM in experiment [3].
